{"source": "patent US7504095B2", "about": "“Method for obtaining precursor Z and use thereof for the production of a means for therapy of human molybdenum cofactor deficiency” (Technische Universitaet Braunschweig, priority 2004, dated 2009)", "key": {"MOCS1-deficient mice [1]": {"system": "MOCS1-deficient mice", "experiment": "Water labyrinth learning test", "assay_type": "in vivo", "procedure": "FIG. 7: Ability to train precursor Z-treated MOCS1-deficient mice in a water labyrinth. The values represented a cross section of six wildtype- (wt, black bars) and six precursor Z treated MOCS1-deficient mice (MOCS1 ^−/−, white bars). […] C, time (of a total of 120 seconds), spent in the correct sector (without platform), which were learned in passes A and B.\n(§1) Avoidance of light was tested in the light/dark box, in which the animals were placed into the light area and the time was determined until the animals sought out the darker area. […] The results were compared with wild-type controls. The mice were sequentially introduced into all four sectors and the time was measured until the animals found and climbed onto the platform (FIG. 7). […] In a second test series, the average swim time was reduced to 20-25% of the first test both in the “knockout” mice as well as with the control animals. In a third test series, the platform was removed and the time was measured that the mice spent in the “correct” sector—the sector that previously contained the platform. Both groups spent approximately 50% of the time in the correct sector."}, "MOCS1-deficient mice [2]": {"system": "MOCS1-deficient mice", "experiment": "Open field test", "assay_type": "in vivo", "design": "dose or concentration left out as unconfirmed", "settings": "precursor Z every third day"}, "Total-MPT inclusive Moco": {"system": "Total-MPT inclusive Moco", "experiment": "MPT content in liver after last injection", "assay_type": "in vivo, mice", "procedure": "(§2) FIG. 6: Restoration of the MPT-biosynthesis in vitro and in vivo. (a) In vitro restoration of MOCS1-deficient liver extracts with precursor Z. Protein raw extract of a five day old MOCS1^−/− were incubated (1 h) with the indicated amounts of purified precursor Z per mg protein. Restoration of MPT-synthesis was measured by means of nit-1 reconstitution assay. (b-d) Biochemical analysis of precursor Z treated MOCS1-deficient animals. The mice were twice weekly injected with increasing amounts of precursor Z, beginning with 2 μg after birth and up to 8 μg after weaning. Between the days 25-55 after birth the treatment was stopped. On day 0 (4 hours after the last injection), 1, 4 and 7 respectively, two mice were sacrificed. Two liver samples of each animal were removed and separately further processed. Each value in the figure was thus determined four times. […]\n(§3) In homozygote MOCS1^−/−-animals, in which precursor Z was injected regularly and which appeared normal with regard to weight, appearance and behavior, the treatment was halted and the animals were sacrificed sequentially at days 0, 1, 4 and 7 after the last injection in order to determine the MPT-content and the Mo-enzyme activity in the liver (FIG. 6b-d). Due to the rapid conversion of the administered precursor Z to MPT, the highest MPT-value was measured on the day of the injection (16±1% of the wildtype; FIG. 6b). […]"}, "[3]": {"system": "MPT-synthesis in MOCS1-deficient liver extracts", "experiment": "In vitro reconstitution of MOCS1-deficient liver extract, nit-1 reconstitution assay", "assay_type": "biochemical, mice", "procedure": "FIG. 6: Restoration of the MPT-biosynthesis in vitro and in vivo. (a) In vitro restoration of MOCS1-deficient liver extracts with precursor Z. Protein raw extract of a five day old MOCS1^−/− were incubated (1 h) with the indicated amounts of purified precursor Z per mg protein. Restoration of MPT-synthesis was measured by means of nit-1 reconstitution assay. (b-d) Biochemical analysis of precursor Z treated MOCS1-deficient animals. The mice were twice weekly injected with increasing amounts of precursor Z, beginning with 2 μg after birth and up to 8 μg after weaning. Between the days 25-55 after birth the treatment was stopped. On day 0 (4 hours after the last injection), 1, 4 and 7 respectively, two mice were sacrificed. Two liver samples of each animal were removed and separately further processed. Each value in the figure was thus determined four times. Total-MPT inclusive Moco (b), sulphite oxidase activity (c) and xanthine dehydrogenase (d) are indicated as percentage of the corresponding wildtype value (n=4).\nThe biological activity of the purified precursor Z could be verified by a quantitive in vitro conversion to MPT tinder use of purified E. coli MPT-Synthase^B26 . […] In order to determine the amount of precursor Z needed for a successful reestablishment of Moco-biosynthesis in MOCS1-deficient mice, we carried out an in vitro reconstitution with various amount of precursor Z in protein-raw extract from the liver of five day old MOCS1-deficient mice carried out (FIG. 6a). In the case of the employment of 134 ng precursor Z/mg protein a near complete reestablishment of Moco-biosynthesis could be achieved, while 27 ng precursor Z led to a reconstitution of approximately 50%. The protein total concentration of the liver extract amounted to 6 mg (obtained from 50 mg total liver tissue) which necessitated a total required amount of precursor Z of 0.8 μg for each animal for complete reestablishment of the MPT-synthesis under in vitro conditions. Accordingly for an adult animal with a body weight of 20 g and an approximate mass or weight of the liver of 1 g, 16 μg precursor Z was needed for complete reestablishment, however only 3 μg for an activation of 50%. […] Although the in vitro titration experiment yielded no information regarding which part of the Moco is transmitted to the Apo-sulfhite-oxidase, the investigated or established amount of precursor Z related to the maximal capacity of the MPT-production in the liver of MOCS1-deficient mice."}, "MOCS1-deficient mice [4]": {"system": "MOCS1-deficient mice", "experiment": "Light/dark box test", "assay_type": "in vivo", "settings": "treated MOCS1-deficient mice", "procedure": "as §1"}, "MOCS1-deficient mice [5]": {"system": "MOCS1-deficient mice", "experiment": "Cessation or delayed initiation of precursor Z treatment", "assay_type": "in vivo", "description": "In order to test whether the treatment with precursor Z can be halted after a certain developmental stage, we stopped the injection of precursor Z in homozygouse mutants on days 1 (n=3), 12 (n=4), 26-28 (n=3) and 64-68 (n=2) after birth. A single injection of precursor Z after day one led to death after 15-18 days. […] At the age of 26-28 days, in which the previously described critical period falls, the cessation of administration of precursor Z led to death within 4-7 days. Cessation after 64-68 days led to reduced exploration of the environment after 7 days and to death after 9-10 days. In order to successfully correct the phenotype, the administration with precursor Z had to be initiated within 5 days following birth."}, "[6]": {"settings": "low pH-values; cited from earlier work"}, "xanthine dehydrogenase": {"system": "xanthine dehydrogenase", "experiment": "Xanthine dehydrogenase activity in liver after last injection", "assay_type": "in vivo, mice", "procedure": "as §2, §3"}, "E. coli MPT-Synthase": {"biological_target": "E. coli MPT-Synthase (Escherichia coli, UniProt P30749)", "sequence (P30749 whole entry)": "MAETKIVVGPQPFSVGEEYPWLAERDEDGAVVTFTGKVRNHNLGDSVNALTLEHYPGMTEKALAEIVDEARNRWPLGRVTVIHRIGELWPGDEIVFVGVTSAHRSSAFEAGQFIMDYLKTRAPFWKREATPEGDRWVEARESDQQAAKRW", "sequence (P30748 whole entry, further chain)": "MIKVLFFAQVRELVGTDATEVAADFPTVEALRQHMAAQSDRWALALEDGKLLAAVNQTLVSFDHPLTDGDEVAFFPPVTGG", "experiment": "In vitro conversion of precursor Z to MPT with purified MPT-synthase", "assay_type": "biochemical", "settings": "double excess of MPT-synthase, HPLC formA analysis", "description": "The biological activity of the purified precursor Z could be verified by a quantitive in vitro conversion to MPT tinder use of purified E. coli MPT-Synthase^B26 . […] In order to determine the amount of precursor Z needed for a successful reestablishment of Moco-biosynthesis in MOCS1-deficient mice, we carried out an in vitro reconstitution with various amount of precursor Z in protein-raw extract from the liver of five day old MOCS1-deficient mice carried out (FIG. 6a). In the case of the employment of 134 ng precursor Z/mg protein a near complete reestablishment of Moco-biosynthesis could be achieved, while 27 ng precursor Z led to a reconstitution of approximately 50%. The protein total concentration of the liver extract amounted to 6 mg (obtained from 50 mg total liver tissue) which necessitated a total required amount of precursor Z of 0.8 μg for each animal for complete reestablishment of the MPT-synthesis under in vitro conditions. Accordingly for an adult animal with a body weight of 20 g and an approximate mass or weight of the liver of 1 g, 16 μg precursor Z was needed for complete reestablishment, however only 3 μg for an activation of 50%. […]"}, "MOCS1-deficient mice [7]": {"system": "MOCS1-deficient mice", "experiment": "Running wheel test", "assay_type": "in vivo", "settings": "10 and 20 RPM"}, "[8]": {"settings": "adult animal, body weight 20 g, liver 1 g"}}}
{"molecule": "Nc1nc2c(c(=O)[nH]1)N[C@@H]1[C@H](N2)O[C@@H]2COP(=O)(O)O[C@@H]2C1(O)O", "note": "[precursor Z]", "values": [{"measurement": "water labyrinth: average swim time as % of the first test", "setting": "MOCS1-deficient mice [1]; second test series", "value": "20-25%"}, {"measurement": "water labyrinth: time spent in the correct sector", "setting": "MOCS1-deficient mice [1]; third test series, platform removed", "value": "approximately 50%"}, {"measurement": "open field: movement, learning and social behavior versus wildtype", "setting": "MOCS1-deficient mice [2]", "value": "no significant differences"}, {"measurement": "MPT-value in liver", "setting": "Total-MPT inclusive Moco; day of the injection (day 0, 4 hours after the last injection)", "value": "16±1 % of the wildtype"}, {"measurement": "MPT-content in liver", "setting": "Total-MPT inclusive Moco; within the following four days after last injection", "value": "less than 4 % of the wildtype value"}, {"measurement": "reconstitution", "setting": "[3]; 27 ng precursor Z, liver extract of five day old MOCS1-deficient mice, 1 h", "value": "approximately 50%"}, {"measurement": "reestablishment of Moco-biosynthesis", "setting": "[3]; 134 ng precursor Z/mg protein, liver extract of five day old MOCS1-deficient mice, 1 h", "value": "near complete"}, {"measurement": "amount of precursor Z needed for an activation of 50%", "setting": "[3]; [8]", "value": 3, "unit": "µg"}, {"measurement": "amount of precursor Z needed for complete reestablishment", "setting": "[3]; [8]", "value": 16, "unit": "µg"}, {"measurement": "total required amount of precursor Z per animal for complete reestablishment of MPT-synthesis", "setting": "[3]; five day old animal, 6 mg liver extract protein, in vitro conditions", "value": 0.8, "unit": "µg"}, {"measurement": "light/dark box: time until seeking the darker area versus wild type", "setting": "MOCS1-deficient mice [4]", "value": "no significant difference"}, {"measurement": "death after cessation", "setting": "MOCS1-deficient mice [5]; cessation after 64-68 days", "value": "9 to 10", "unit": "days"}, {"measurement": "onset of reduced exploration of the environment after cessation", "setting": "MOCS1-deficient mice [5]; cessation after 64-68 days", "value": 7, "unit": "days"}, {"measurement": "death after cessation", "setting": "MOCS1-deficient mice [5]; cessation at the age of 26-28 days", "value": "4 to 7", "unit": "days"}, {"measurement": "death after the last injection", "setting": "MOCS1-deficient mice [5]; cessation on day 12", "value": "7 to 9", "unit": "days"}, {"measurement": "onset of limited exploration of the environment after the last injection", "setting": "MOCS1-deficient mice [5]; cessation on day 12", "value": 6, "unit": "days"}, {"measurement": "improvement of the phenotype or the life expectancy", "setting": "MOCS1-deficient mice [5]; initiation of treatment after 7 or 10 days", "value": "no significant improvement"}, {"measurement": "time after birth within which administration had to be initiated to correct the phenotype", "setting": "MOCS1-deficient mice [5]; mouse, in vivo", "value": "≤ 5", "unit": "days"}, {"measurement": "time of death", "setting": "MOCS1-deficient mice [5]; single injection, treatment stopped on day 1", "value": "15 to 18", "unit": "days"}, {"measurement": "estimated half time", "setting": "[6]", "value": "several hours"}, {"measurement": "xanthin dehydrogenase activity, course", "setting": "xanthine dehydrogenase; after day 1", "value": "rapidly decreased"}, {"measurement": "xanthin-dehydrogenase activity (% of wildtype) versus reconstituted MPT-content", "setting": "xanthine dehydrogenase; liver", "value": "higher than the reconstituted MPT-content"}, {"measurement": "conversion of precursor Z into MPT", "setting": "E. coli MPT-Synthase", "value": "almost completely"}, {"measurement": "running wheel: limitations of movement", "setting": "MOCS1-deficient mice [7]", "value": "Limitations of movement were not shown"}]}
